Reference: patent US20090087845A1, “Genetic Markers Of True Low Birth Weight” (priority 2005, published 2009)

Tested on: placental gene expression
[1] = rat placenta, 0, 5%, 10% in drinking water
[2] = rat placenta, 5% in drinking water throughout pregnancy
[3] = rat placenta, 5% or 10% in drinking water throughout pregnancy, p<0.05 in both t-tests
[4] = rat placenta, 10% in drinking water throughout pregnancy

## CCO [alcohol]
10% alcohol group, Mean Contr 6.259265
  Mean 10%, Pex6 (1368264_at): 5.303
10% alcohol group, Mean Contr 6.298338
  Mean 10%, St3gal3 (1373607_at): 5.59
10% alcohol group, Mean Contr 6.314496
  Mean 10%, Kbtbd4_predicted (1374614_at): 5.325
10% alcohol group, Mean Contr 6.483711
  Mean 10%, Phyh (1393245_at): 5.227
10% alcohol group, Mean Contr 6.526312
  Mean 10%, LOC287533 (1373627_at): 5.351
10% alcohol group, Mean Contr 6.549543
  Mean 10%, Transcribed locus (1388465_at): 5.667
10% alcohol group, Mean Contr 6.629539
  Mean 10%, Mss4 (1376745_at): 5.49
10% alcohol group, Mean Contr 6.670053
  Mean 10%, Plag1 (1391714_at): 5.554
10% alcohol group, Mean Contr 6.839621
  Mean 10%, Sumf1_predicted (1389833_at): 5.774
10% alcohol group, Mean Contr 6.849002
  Mean 10%, Polr3e_predicted (1374415_at): 5.78
10% alcohol group, Mean Contr 6.859582
  Mean 10%, RGD1308959 (1399108_at): 5.829
10% alcohol group, Mean Contr 6.895168
  Mean 10%, Wig1 (1387021_at): 5.95
10% alcohol group, Mean Contr 6.970231
  Mean 10%, probe set 1379314_at: 5.514
10% alcohol group, Mean Contr 6.981191
  Mean 10%, Ddx59 (1383635_at): 6.018
10% alcohol group, Mean Contr 7.018906
  Mean 10%, Rnd3 (1394077_at): 6.069
10% alcohol group, Mean Contr 7.020197
  Mean 10%, probe set 1393037_at: 6.384
10% alcohol group, Mean Contr 7.252498
  Mean 10%, Slc39a4_predicted (1374366_at): 5.652
10% alcohol group, Mean Contr 7.300542
  Mean 10%, RGD1305243_predicted (1374076_at): 6.175
10% alcohol group, Mean Contr 7.364799
  Mean 10%, Transcribed locus (1393310_at): 5.834
10% alcohol group, Mean Contr 7.420203
  Mean 10%, Gusb (1367901_at): 6.432
10% alcohol group, Mean Contr 7.435411
  Mean 10%, probe set 1392953_at: 6.103
10% alcohol group, Mean Contr 7.471023
  Mean 10%, Crsp9_predicted (1377263_at): 5.974
10% alcohol group, Mean Contr 7.588214
  Mean 10%, probe set 1389582_at: 6.297
10% alcohol group, Mean Contr 7.705027
  Mean 10%, Transcribed locus (1393226_at): 6.077
10% alcohol group, Mean Contr 7.731478
  Mean 10%, RGD1565289_predicted (1375297_at): 6.615
10% alcohol group, Mean Contr 8.125942
  Mean 10%, Zfp207 (1394591_at): 6.769
10% alcohol group, Mean Contr 8.276972
  Mean 10%, Akr7a2 (1367843_at): 6.866
10% alcohol group, Mean Contr 8.308305
  Mean 10%, Tparl (1373392_at): 7.589
10% alcohol group, Mean Contr 8.623529
  Mean 10%, Mcts1 (1388660_at): 7.771
10% alcohol group, Mean Contr 8.793343
  Mean 10%, Hadhsc (1370237_at): 8.015
10% alcohol group, Mean Contr 9.074708
  Mean 10%, Asah1 (1374770_at): 7.952
10% alcohol group, Mean Contr 9.55972
  Mean 10%, Arts1 (1368356_a_at): 8.725
10% alcohol group, Mean Contr 10.12286
  Mean 10%, Ndufb5_predicted (1388304_at): 9.267
10% alcohol group, Mean Contr 10.24563
  Mean 10%, MGC72992 (1389325_at): 9.571
10% alcohol group, Mean Contr 10.46183
  Mean 10%, Vps35_mapped (1372806_at): 9.969
Contr vs 5% vs 10% alcohol
  sig down and spec alc, Arts1 (1368356_a_at): YES
  sig down and spec alc, Cdca7 (1374540_at): YES
  sig down and spec alc, Centa2 (1369725_at): YES
  sig down and spec alc, Crsp9_predicted (1377263_at): YES
  sig down and spec alc, Cul2_predicted (1378127_at): YES
  sig down and spec alc, Ddx59 (1383635_at): YES
  sig down and spec alc, Ggps1 (1377866_a_at): YES
  sig down and spec alc, Gusb (1367901_at): YES
  sig down and spec alc, Hadhsc (1370237_at): YES
  sig down and spec alc, Mcpt6 (1387334_at): YES
  sig down and spec alc, Ndufb5_predicted (1388304_at): YES
  sig down and spec alc, Pex6 (1368264_at): YES
  sig down and spec alc, Prdm2_mapped (1381229_at): YES
  sig down and spec alc, RGD1305243_predicted (1374076_at): YES
  sig down and spec alc, RGD1565289_predicted (1375297_at): YES
  sig down and spec alc, Tparl (1373392_at): YES
  sig down and spec alc, Transcribed locus (1377021_at): YES
  sig down and spec alc, Trp53rk_predicted (1379488_at): YES
  sig down and spec alc, Vps35_mapped (1372806_at): YES
Rat placenta
  number of placental genes down-regulated after excluding genes overlapping with caloric restriction, high fat diet and SSRI: 35 genes
  number of placental genes up-regulated after excluding genes overlapping with caloric restriction, high fat diet and SSRI: 7 genes
[1]
  placental expression of TP53 regulating kinase (Trp53rk): down-regulated
  placental expression of Zinc finger protein 365 (Zfp365): up-regulated
  placental expression of cell division cycle associated 7 (Cdca7): down-regulated
  placental expression of inositol polyphosphate-1-phosphatase (Inpp1): down-regulated
  placental expression of peroxisomal biogenesis factor 6 (Pex6): down-regulated
  placental expression of pleckstrin (Plek): down-regulated
[2]
  Mean 5% expression, probe set 1370527_a_at (casein kinase 1, delta, Csnk1d): 9.839
  Mean 5% expression, probe set 1380351_at: 4.282
  Mean 5% expression, probe set 1381613_at (Transcribed locus): 4.29
  Mean 5% expression, probe set 1384272_at (Zinc finger protein 365, Zfp365): 4.227
  Mean 5% expression, probe set 1384691_at (Transcribed locus, weakly similar to XP_577161.1): 4.65
  Mean 5% expression, probe set 1384793_at: 4.485
  Mean 5% expression, probe set 1388932_at (laminin, alpha 5, Lama5): 9.683
  Mean 5% expression, probe set 1391879_at (Transcribed locus): 4.547
[3]
  number of probe sets up-regulated (0<5%<10% pattern): 8 probe sets
  number of probe sets with reduced expression in exposed animals (0>5%>10% pattern): 57 probe sets
[4]
  Mean 10% expression, probe set 1370527_a_at (casein kinase 1, delta, Csnk1d): 10.03
  Mean 10% expression, probe set 1380351_at: 4.908
  Mean 10% expression, probe set 1381613_at (Transcribed locus): 4.634
  Mean 10% expression, probe set 1384272_at (Zinc finger protein 365, Zfp365): 4.517
  Mean 10% expression, probe set 1384691_at (Transcribed locus, weakly similar to XP_577161.1): 5.112
  Mean 10% expression, probe set 1384793_at: 4.761
  Mean 10% expression, probe set 1388932_at (laminin, alpha 5, Lama5): 9.897
  Mean 10% expression, probe set 1391879_at (Transcribed locus): 4.937
